Data as given in patent CN103739564A, “缬沙坦的多晶型及其制备方法” (Shanghai Institute of Materia Medica of CAS, priority 2012, dated 2013).

Test: Hygroscopicity analysis (DVS) of the valsartan crystal forms
Type: physicochemical
Details: new crystal forms; result in words only; DVS comparison (Figure 11) not in text

Structure (SMILES): CCCCC(=O)N(Cc1ccc(-c2ccccc2-c2nnn[nH]2)cc1)[C@H](C(=O)O)C(C)C [晶型E, (S)-N-(1-戊酰基)-N-[[2’-(1H-四唑-5-基)[1,1’-联苯]-4-基]甲基]-L-缬氨酸]
- hygroscopicity: 吸湿性小
